Assays:
[1] = tested on: Klebsiella pneumoniae ATCC-BAA 2470; test: Mouse thigh muscle infection model, Klebsiella pneumoniae ATCC-BAA 2470; format: in vivo; settings: immunodeficient female CD-1 mice; Klebsiella pneumoniae ATCC-BAA 2470 9.5E+06 CFU/mouse; 200 mg/kg every 2 h from 2 h; end point 24 h
Experimental: 15 female CD-1 mice were divided into 5 cages, 3 mice per cage; the day of infection was counted as day 0.
Immunosuppressant cyclophosphamide 150 mg/kg were injected intraperitoneally on Day-4, and immunosuppressant cyclophosphamide 100 mg/kg was injected intraperitoneally again on the first day to obtain immunodeficient mice.
The strain Klebsiella pneumoniae ATCC-BAA 2470 was recovered on an MHA plate on the first day. The recovered colonies were picked and dissolved in sterile saline to prepare bacterial solution with a concentration of 9.5E+07 CFU/mL for use in mouse thigh muscle infection. The infection starting time was counted as 0 h, and 100 μL of bacterial solution is injected into the thigh muscle of each mouse at 0 h, that is, the inoculation amount is 9.5E+06 CFU/mouse. 2 h after infection, the drugs were administered according to the experimental scheme. The specific experimental scheme is as follows (see Table 5): […]
(2) 2 h after infection: Mice in the second to third cages were administered separately at a volume of 10 mL/kg according to the mouse body weight. […] The amount of bacteria loaded in the thigh muscle tissue of the mouse was counted, and the experimental results were shown in Table 6.

[2] = tested on: clinically isolated carbapenem-resistant enterobacteriaceae; format: cell-based; settings: single drug; panel of 26 strains of Table 2
Experimental: The minimum inhibitory concentration (MIC) of the compound and combination with β-lactamase (MBLs) inhibitors against clinically isolated carbapenem-resistant enterobacteriaceae was determined by the two-fold agar dilution method to determine the activity of the compound to be tested against strains producing MBLs. […] The mother liquor was diluted to the concentration to be tested by double dilution method, an inoculum liquid was prepared by direct bacterial suspension method, 1 mL of the prepared bacteria solution was withdrawn and putted into the inoculation tube, and a positioning needle and an inoculation needle were installed. A bacterial multi-point inoculator was started for inoculation. After the bacterial solution was absorbed by the agar, the plate was placed upside down in an incubator at 37° C. for 16-20 hours, and the results were observed. The average of three tests was taken.

K.p CRE16 = test: MIC, two-fold agar dilution, clinical isolate; format: cell-based; settings: single drug, average of three tests
Experimental: (§1) The minimum inhibitory concentration (MIC) of the compound and combination with β-lactamase (MBLs) inhibitors against clinically isolated carbapenem-resistant enterobacteriaceae was determined by the two-fold agar dilution method to determine the activity of the compound to be tested against strains producing MBLs. Antibiotics and enzyme inhibitors were weighed separately and dissolved in sterile ultrapure water or dimethyl sulfoxide to prepare mother liquor, MHA medium was prepared, pH was adjusted to 7.2-7.4, and it was sterilized at 121° C. for 15 minutes and placed in a 55° C. water bath for heat preservation. The mother liquor was diluted to the concentration to be tested by double dilution method, an inoculum liquid was prepared by direct bacterial suspension method, 1 mL of the prepared bacteria solution was withdrawn and putted into the inoculation tube, and a positioning needle and an inoculation needle were installed. A bacterial multi-point inoculator was started for inoculation. After the bacterial solution was absorbed by the agar, the plate was placed upside down in an incubator at 37° C. for 16-20 hours, and the results were observed. The average of three tests was taken.

K.p 13249 = test: MIC, two-fold agar dilution, clinical isolate; format: cell-based; settings: K.p 13249; single drug; average of three tests; read-out: MIC
Experimental: as §1

E.coli CRE21 = test: MIC, two-fold agar dilution, clinical isolate; format: cell-based; settings: Escherichia coli; E.coli CRE21; single drug; average of three tests; read-out: MIC
Experimental: as §1

[3] = tested on: Morganella morganii C1274; test: MIC, two-fold agar dilution, clinical isolate; format: cell-based; settings: Morganella morganii, C1274
Experimental: as §1

K.p 090339 = test: MIC, two-fold agar dilution, clinical isolate; format: cell-based
Experimental: as §1

K.p C904 = test: MIC, two-fold agar dilution, clinical isolate; format: cell-based
Experimental: as §1

K.p 6777 = test: MIC, two-fold agar dilution, clinical isolate; format: cell-based
Experimental: as §1

E.coli C1569 = test: MIC, two-fold agar dilution, clinical isolate; format: cell-based; settings: Escherichia coli, single drug, average of three tests
Experimental: as §1

E.coli 115103 = test: MIC, two-fold agar dilution, clinical isolate; format: cell-based; settings: Escherichia coli; E.coli 115103; single drug; average of three tests; read-out: MIC
Experimental: as §1

K.p CRE12 = test: MIC, two-fold agar dilution, clinical isolate; format: cell-based; settings: single drug, average of three tests
Experimental: as §1

E.coli 020033 = test: MIC, two-fold agar dilution, clinical isolate; format: cell-based; settings: Escherichia coli, single drug, average of three tests
Experimental: as §1

K.p BAA-2470 = test: MIC, two-fold agar dilution, clinical isolate; format: cell-based
Experimental: as §1

E.coli 020031 = test: MIC, two-fold agar dilution, clinical isolate; format: cell-based; settings: Escherichia coli, single drug, average of three tests
Experimental: as §1

E.coli BAA-2452 = test: MIC, two-fold agar dilution, clinical isolate; format: cell-based; settings: Escherichia coli, BAA2452
Experimental: as §1

K.p 11544 = test: MIC, two-fold agar dilution, clinical isolate; format: cell-based; settings: K.p 11544; single drug; average of three tests; read-out: MIC
Experimental: as §1

E.coli CRE28 = test: MIC, two-fold agar dilution, clinical isolate; format: cell-based; settings: Escherichia coli; E.coli CRE28; single drug; average of three tests; read-out: MIC
Experimental: as §1

E.coli CRE23 = test: MIC, two-fold agar dilution, clinical isolate; format: cell-based; settings: Escherichia coli; E.coli CRE23; single drug; average of three tests; read-out: MIC
Experimental: as §1

E.coli CRE18 = test: MIC, two-fold agar dilution, clinical isolate; format: cell-based; settings: Escherichia coli; E.coli CRE18; single drug; average of three tests; read-out: MIC
Experimental: as §1

K.p HX37 = test: MIC, two-fold agar dilution, clinical isolate; format: cell-based; settings: K.p HX37; single drug; average of three tests; read-out: MIC
Experimental: as §1

E.coli 020028 = test: MIC, two-fold agar dilution, clinical isolate; format: cell-based; settings: Escherichia coli, single drug, average of three tests
Experimental: as §1

NC[C@@H]1CN(C[C@@H]2[C@H](NC(=O)/C(=N\OC3(C(=O)O)CC3)c3csc(N)n3)C(=O)N2S(=O)(=O)O)S(=O)(=O)N1 [Compound 4]
Average CFU of the mouse (amount of bacteria loaded in thigh muscle tissue) [1]: 3.93E+06 CFU/mouse | MIC50 [2]: 0.125 µg/mL | MIC90 [2]: 1 µg/mL | MIC (K.p CRE16): 0.06 µg/mL | MIC (K.p 13249): 0.06 µg/mL | MIC (E.coli CRE21): 1 µg/mL | MIC [3]: 0.125 µg/mL | MIC (K.p 090339): 0.125 µg/mL | MIC (K.p C904): 0.125 µg/mL | MIC (K.p 6777): 0.125 µg/mL | MIC (E.coli C1569): 1 µg/mL | MIC (E.coli 115103): 1 µg/mL | MIC (K.p CRE12): 0.06 µg/mL | MIC (E.coli 020033): 1 µg/mL | MIC (K.p BAA-2470): 0.125 µg/mL | MIC (E.coli 020031): 0.5 µg/mL | MIC (E.coli BAA-2452): 0.125 µg/mL | MIC (K.p 11544): 0.06 µg/mL | MIC (E.coli CRE28): 1 µg/mL | MIC (E.coli CRE23): 1 µg/mL | MIC (E.coli CRE18): 1 µg/mL | MIC (K.p HX37): 0.25 µg/mL | MIC (E.coli 020028): 0.03 µg/mL
